{"source": "ChEMBL document CHEMBL1156500", "about": "“Characterization of the metabolic activation of hepatitis C virus nucleoside inhibitor beta-D-2'-Deoxy-2'-fluoro-2'-C-methylcytidine (PSI-6130) and identification of a novel active 5'-triphosphate species” (J Biol Chem, 2007)", "test_system": "Hepatitis C virus", "assay": "Inhibition of RNA synthesis activity of […]", "details": "Hepatitis C virus subtype 1b; Con1", "data": [{"compound": "Nc1ccn([C@@H]2O[C@H](COP(=O)(O)OP(=O)(O)OP(=O)(O)O)[C@@H](O)[C@H]2O)c(=O)n1", "values": [{"measurement": "Km", "result": 0.22, "unit": "µM"}]}]}
